≈ marks a conversion by molar mass, not a printed value.

The conditions of the data set: buffer; pH 7.4; 200.0 µM.
The kinetic solubility is the concentration staying in solution when a stock, usually in DMSO, is diluted into the medium. Regarding `CC(NC(=O)c1ccccc1Cl)c1ccc(-n2ccnc2)cc1` (stereo unspecified), the solubility (kinetic) was over 48.9 µg/mL.
For `O=C(Nc1ccc2c(c1)C(=O)OC2)c1ccc(C(F)(F)F)cc1` the value was under 0.7 µg/mL; for `O=C(CSCc1ccccc1F)NCc1ccc(F)cc1`, over 46.1 µg/mL.
To `Cc1ccc(S(=O)(=O)N2CCCCC2)cc1` belongs 20 µg/mL (≈ 83.6 µM); to `Cc1ccc(CNC(=O)c2c(-c3ccccc3Cl)noc2C)cc1`, 42.6 µg/mL (≈ 125 µM); to `O=C(CCl)N1c2ccccc2SCC1c1ccccc1` (stereo unspecified), 2.7 µg/mL (≈ 8.89 µM).
To `COC(=O)C(Cc1ccc(O)cc1)NC(=O)CCc1ccco1` (stereo unspecified) belongs 46.5 µg/mL (≈ 147 µM).
`Cc1onc(-c2ccccc2)c1C(=O)N=C(N)c1ccc(C(F)(F)F)cc1` had a solubility (kinetic) of under 0.3 µg/mL.
For `CN(C)C(=S)c1ccccc1` the value was 21.4 µg/mL (≈ 129 µM); for `CSc1ncccc1C(=O)NCC(c1ccco1)N1CCCCC1` (stereo unspecified), over 51.8 µg/mL.
To `Cc1ccc(CNC(=O)C(c2ccccc2)c2ccccc2)cc1` belongs under 0.7 µg/mL; to `COc1ccccc1C(=O)OCC(=O)NC(C)CCc1ccccc1` (stereo unspecified), over 51.2 µg/mL; to `CC(=O)c1cccc(NC(=O)c2cc(=O)[nH]c3ccc(S(=O)(=O)N4CCOCC4)cc23)c1`, 8.5 µg/mL (≈ 18.7 µM).
For `O=C(NCCO)C(=O)Nc1cc2c3c(c1)CCN3C(=O)CC2` the value was over 45.5 µg/mL.
`CC(=O)Nc1ccc2c(c1)nc(C)n2-c1ccccc1` had a solubility (kinetic) of over 39.8 µg/mL.
For `CCn1c(Cc2ccc(OC)cc2)nc2ccccc21` the value was over 40 µg/mL; for `O=S(=O)(c1ccc(Cl)nc1)N1CCN(c2ncccn2)CC1`, 1 µg/mL (≈ 2.94 µM); for `COc1cc(CN(C)Cc2cccc3ccccc23)cc([N+](=O)[O-])c1O`, 33.8 µg/mL (≈ 95.9 µM).
For `CCOc1ccc(C2Nc3ccccc3C(CC)(CC)O2)cc1` (stereo unspecified) the value was 2.1 µg/mL (≈ 6.74 µM).
To `CCOc1ccc(S(=O)(=O)NCCCn2ccnc2)cc1` belongs 45.4 µg/mL (≈ 147 µM); to `CCN1C(=O)C(=O)N(CC(=O)Nc2cc(C)ccc2C)C1=O`, over 45.5 µg/mL; to `CCn1c(=O)c2c(nc3n2CCCN3Cc2ccccc2)n(C)c1=O`, 13.7 µg/mL (≈ 40.4 µM).
Regarding `CCOC(=O)C(Nc1ccc2ccccc2c1)C(=O)OCC`, the solubility (kinetic) is over 45.2 µg/mL.
For `O=C(COC(=O)/C=C/c1ccc(OC(F)F)cc1)Nc1ccc2[nH]c(=O)[nH]c2c1` the value was 5.3 µg/mL (≈ 13.1 µM).
To `Cc1nn(CC(=O)OCC(=O)Nc2cccc(S(N)(=O)=O)c2)c(C)c1[N+](=O)[O-]` belongs over 61.7 µg/mL; to `CCOc1ncccc1C(=O)OCC(=O)N1CCC(C)CC1`, over 46 µg/mL.
For `CC(=O)Nc1cccc(NC(=O)CCCC2CCCCC2)c1` the value was 3 µg/mL (≈ 9.92 µM); for `O=C(CSc1nc2ncccc2[nH]1)Nc1ccc2c(c1)OCO2`, over 49.3 µg/mL.
`CN1CCN(c2nc(-c3cccc([N+](=O)[O-])c3)nc3ccccc23)CC1` yielded a solubility (kinetic) of 8.5 µg/mL (≈ 24.3 µM).
For `O=C(O)c1ccc2cc(-c3ccccc3)[nH]c2c1` the value was 31.2 µg/mL (≈ 132 µM).
With `CSc1nsc(SC)c1C(=O)Nc1ccc(C(C)(C)C)cc1`, the solubility (kinetic) is under 0.4 µg/mL.
To `O=S(=O)(Nc1cccc2ccccc12)c1ccccc1` belongs 8.6 µg/mL (≈ 30.4 µM); to `Cc1cccc(NC(=S)NCCc2ccc3c(c2)OCCO3)c1C`, 27.7 µg/mL (≈ 80.9 µM); to `CC(C)NC(=O)c1sc2c(c1C(=O)Nc1cccnc1)CCCC2`, 6.4 µg/mL (≈ 18.6 µM).
For `CC(=O)N1CCN(CC(=O)Nc2sccc2C#N)CC1` the value was 39 µg/mL (≈ 133 µM); for `CC(=O)Nc1ccc(NC(=O)COC(=O)COc2ccc3ccccc3c2)cc1`, 9.7 µg/mL (≈ 24.7 µM); for `Cc1cnc([N+](=O)[O-])n1CCOC(=O)NC(=O)c1ccccc1`, 44.4 µg/mL (≈ 139 µM).
For `CN1CCN(S(=O)(=O)c2cccc(C(=O)Nc3cccc([N+](=O)[O-])c3)c2)CC1` the value was 59.7 µg/mL (≈ 148 µM); for `CC1(C)C(C#N)=C(N)Oc2c1c(=O)oc1ccccc21`, 1.1 µg/mL (≈ 4.1 µM); for `Cc1cccc(C(=O)OCC(=O)c2ccc3c(c2)NC(=O)CO3)c1`, 4.5 µg/mL (≈ 13.8 µM).
As to `N#C/C(=C\c1ccco1)C(=O)Nc1ccc(S(N)(=O)=O)cc1`, the kinetic solubility was 3.5 µg/mL (≈ 11 µM). The solubility kinetic values of the last two compounds are within 1.5-fold of each other.
`Cc1ccc(S(=O)(=O)NCC(=O)NC2CC2)cc1` had a solubility (kinetic) of over 40.2 µg/mL.
For `COc1ccc(NC(=O)CCC(=O)N/N=C/c2cccnc2)cc1` the value was over 49 µg/mL; for `N#CC1C=Cc2ccccc2N1C(=O)c1ccccc1` (stereo unspecified), 10.3 µg/mL (≈ 39.6 µM).
To `O=C(/C=C/c1cccc(O)c1)c1ccc(N2CCOCC2)cc1` belongs 23.2 µg/mL (≈ 75 µM).
For `COCCNc1nc(N)c([N+](=O)[O-])c(NCc2ccccc2)n1` the value was 4.9 µg/mL (≈ 15.4 µM); for `COC(CNC(=O)c1coc2nc3ccccc3nc12)OC`, 34.8 µg/mL (≈ 115 µM).
In turn, `CCOc1ccc(OCC(=O)OC(C)C(=O)NC2CCCC2)cc1` (stereo unspecified) yielded a kinetic solubility of over 50.3 µg/mL.
For `Cc1cccc(-c2nc(C#N)c(NCc3ccco3)o2)c1` the value was 1.9 µg/mL (≈ 6.8 µM); for `CCOC(=O)Cc1csc(NS(=O)(=O)c2ccc([N+](=O)[O-])cc2)n1`, over 55.7 µg/mL.
For `Cc1ccc(CC(=O)NC2CCN(C)CC2)cc1` the value was over 37 µg/mL.

(Values after PubChem BioAssay AID1996.)
